In patent US7846202B2, “Coated implantable medical device” (Cook Incorporated, priority 1995, dated 2010):

Assays:
[1] = In vitro release rate of bioactive material from beneath porous parylene layer; type: physicochemical; settings: dexamethasone layer over heparin layer, compared with the material alone
Procedure: When the at least one layer 18 of bioactive material contains a relatively soluble material such as heparin, the at least one layer 18 preferably contains a total of from about 0.1 to about 4 mg of bioactive material per cm^2 of the gross surface area of the structure 12. This provides a release rate for the heparin (measured in vitro) which is desirably in the range of 0.1 to 0.5 mg/cm^2 per day, and preferably about 0.25 mg/cm^2 per day, under typical blood flows through vascular stents. It should be noted that the solubility of dexamethasone may be adjusted as desired, with or without the inclusion of heparin, by mixing it with one or more of its relatively more soluble derivatives, such as dexamethasone sodium phosphate.
For example, when the structure 12 of the device 10 is configured as a vascular stent, it is advantageous for the at least one layer 18 to contain relatively soluble heparin, and the second layer 22 to contain relatively less soluble dexamethasone. […] More particularly, when dexamethasone is disposed by itself beneath a porous parylene layer 20 dimensioned as disclosed above, its release rate is negligible; an adequate release rate is obtained only when the thickness of the porous layer 20 is reduced by a factor of ten or more. […]

[2] = In-vitro flow system perfusion of antibody-loaded stents (antibody remaining on stent); type: physicochemical; settings: 10 ml/min, 1% BSA in PBS, after approximately 10 days perfusion
Procedure: In one example, device 10 is a stainless steel GR II™ stent in which the stainless steel base material 14 of structure 12 is coated with a polymer and, in particular, parylene. This adsorbent polymer layer 16 of parylene is approximately 230,000 Å thick. Bioactive material layer 18 of the antiplatelet GP IIb/IIIa antibody (AZ1) was passively loaded on adsorbent polymer layer 16. The polymer coated stainless steel stents were immersed for approximately 24 hours in a buffered aqueous solution of AZ1 antibody (1 mg/ml, pH=7.2) at 37° C. AZ1 is a monoclonal anti-rabbit platelet glycoprotein (GP) IIb/IIIa antibody.
In another example, c7E3 Fab as bioactive material layer 18 is attached to polymer coating layer 16. Bioactive material c7E3 Fab is a chimeric monoclonal antibody that acts upon the […] integrin on platelets to inhibit their aggregation. This antibody or receptor blocker may be used in humans intravenously to prevent thrombosis during coronary angioplasty. This receptor blocker is also known as ReoPro™ available from Eli Lilly, Indianapolis, Ind. Bioactive material layer 18 of the antiplatelet GP IIb/IIIa antibody (c7E3 Fab) was passively loaded on adsorbent polymer layer 16. […]

| Substance | change of release rate in heparin/dexamethasone two-layer device [1] | fraction of loaded antibody remaining on the stent [2] |
| --- | --- | --- |
| heparin | lowered |  |
| c7E3 Fab: chimeric monoclonal antibody that acts upon the […] integrin on platelets to inhibit their aggregation |  | approximately half |
